In this assay the test system is primary rat mixed cortical cells. Nature of the assay: In vitro myelination assay (MBP positive myelin strands, fold myelin pixels above background). The class given is cell-based. As to conditions: Rattus norvegicus; for fold induction at 1 µM: 1.0 μM compound; for fold induction at 10 µM: 10.0 μM compound. The gist of the method:
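P1 rat mixed cortical cultures (neurons, OPCs, oligodendrocytes, astrocytes, microglia) grown 14 days at 37 °C with compound, half-medium refreshed with compound on days 6 and 10. Fixed cells stained for MBP; MBP-positive myelin strand pixels per well quantified by automated imaging, reported as fold over no-compound baseline at 1.0 and 10.0 μM.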

The mark [1] stands for this setting: relative to baseline of no added compound, read-out: Fold myelin pixels above background.
Where [2] appears, read: relative to baseline of no added compound, read-out: Fold myelin pixels above background, 1.0 μM.
Where [3] appears, read: relative to baseline of no added compound, read-out: Fold myelin pixels above background, 10.0 μM.
The mark [4] stands for this setting: read-out: Fold myelin pixels above background relative to baseline of no added compound.

Drawing on US10766869B2, “Triazoles for the treatment of demyelinating dieases” (Vertex Pharmaceuticals Incorporated, priority 2015, dated 2020), this text covers fold induction for 21 compounds.

Read-outs that look alike come from different tables or passages of the source.

As to `Cc1cc(Nc2ncn(-c3cc(F)cc(F)c3)n2)nc(N2CCN(C)CC2)c1` [Compound 731, N-[1-(3,5-difluorophenyl)-1,2,4-triazol-3-yl]-4-methyl-6-(4-methylpiperazin-1-yl)pyridin-2-amine], under setting [1], the fold induction at 1 µM lay in the range of 10 to 100 and the fold induction at 10 µM was no more than 1.

As to `c1ccc(-n2cnc(Nc3cc(C4CCOCC4)cc(N4CCOCC4)c3)n2)cc1` [Compound 251, N-(3-morpholino-5-tetrahydropyran-4-yl-phenyl)-1-phenyl-1,2,4-triazol-3-amine], the fold induction at 1 µM under setting [2] fell in the range of 100 to 1000. Also, under setting [3], the fold induction at 10 µM was in the range of 1 to 10.

In the case of `CCc1cc(Nc2ncn(-c3ccc(C#N)cc3)n2)cc(N2CCN(C3COC3)CC2)c1` [Compound 762, 4-[3-[3-ethyl-5-[4-(oxetan-3-yl)piperazin-1-yl]anilino]-1,2,4-triazol-1-yl]benzonitrile], under setting [1], the fold induction at 1 µM was no more than 1 and the fold induction at 10 µM was no more than 1.

Take `Cc1cc(Nc2ncn(-c3cc(F)cc(F)c3)n2)cc(O[C@H]2C[C@H](N3CCOCC3)C2)c1` [Compound 752, 1-(3,5-difluorophenyl)-N-[3-methyl-5-(3-morpholinocyclobutoxy)phenyl]-1,2,4-triazol-3-amine]: under setting [1], the fold induction at 1 µM lay within 10 to 100 and the fold induction at 10 µM lay in the range of 1 to 10.

Regarding `Cc1cc(Nc2ncn(-c3cc(C)ncn3)n2)cc(N2CCN(C3COC3)CC2)c1` [Compound 111, N-[3-methyl-5-[4-(oxetan-3-yl)piperazin-1-yl]phenyl]-1-(6-methylpyrimidin-4-yl)-1,2,4-triazol-3-amine], the fold induction at 1 µM under setting [2] fell in the range of 10 to 100. For the same compound, the fold induction at 10 µM under setting [3] was 100 to 1000.

Regarding `Cc1cc(Nc2ncn(-c3ccccc3)n2)cc(O[C@@H]2CCN(C3COC3)C2)c1` [Compound 391, N-[3-methyl-5-[(3R)-1-(oxetan-3-yl)pyrrolidin-3-yl]oxy-phenyl]-1-phenyl-1,2,4-triazol-3-amine], under setting [1], the fold induction at 1 µM was 1000 to 10000 and the fold induction at 10 µM fell in the range of 100 to 1000.

With `Cc1cc(Nc2ncn(-c3cccc(F)c3)n2)cc(NC2CCN(C3COC3)C2)c1` (stereo not drawn) [Compound 188, N3-[1-(3-fluorophenyl)-1,2,4-triazol-3-yl]-5-methyl-N1-[1-(oxetan-3-yl)pyrrolidin-3-yl]benzene-1,3-diamine], the fold induction at 1 µM under setting [2] fell in the range of 100 to 1000. The fold induction at 10 µM under setting [3] is no more than 1.

For the compound `Cc1cc(Nc2ncn(-c3cc(F)cc(F)c3)n2)cc(N2CCOC(C3CCCO3)C2)c1` (stereo not drawn) [Compound 888, 1-(3,5-difluorophenyl)-N-[3-methyl-5-(2-tetrahydrofuran-2-ylmorpholin-4-yl)phenyl]-1,2,4-triazol-3-amine], under setting [4], the fold induction at 1 µM lay in the range of 1 to 10 and the fold induction at 10 µM was 1 to 10.

Turning to `Cc1cc(Nc2ncn(-c3cc(F)cc(F)c3)n2)cc(C2(F)CCN(C)C2)c1` (stereo not drawn) [Compound 23, 1-(3,5-difluorophenyl)-N-[3-(3-fluoro-1-methyl-pyrrolidin-3-yl)-5-methyl-phenyl]-1,2,4-triazol-3-amine], the fold induction at 1 µM under setting [2] is 10 to 100. Besides, the fold induction at 10 µM under setting [3] lay in the range of 10 to 100.

Take `COc1ccc(-n2cnc(Nc3cc(C4CC4)nc(N4CCOCC4)c3)n2)cc1OC` [Compound 354, 2-cyclopropyl-N-[1-(3,4-dimethoxyphenyl)-1,2,4-triazol-3-yl]-6-morpholino-pyridin-4-amine]: the fold induction at 1 µM under setting [2] is 1 to 10. Besides, the fold induction at 10 µM under setting [3] lay in the range of 100 to 1000.

Take `Cc1cc(Nc2ncn(-c3ccccc3)n2)cc(C2=CCN(C3COC3)C2)c1` [Compound 160, N-[3-methyl-5-[1-(oxetan-3-yl)-2,5-dihydropyrrol-3-yl]phenyl]-1-phenyl-1,2,4-triazol-3-amine]: the fold induction at 1 µM under setting [2] fell in the range of 1000 to 10000. Further, the fold induction at 10 µM under setting [3] was no more than 1.

In the case of `[2H]C1(N2C([2H])([2H])C([2H])([2H])N(c3cc(C)cc(Nc4ncn(-c5cc(F)cc(F)c5)n4)c3)C([2H])([2H])C2([2H])[2H])COC1` [Compound 997, 1-(3,5-difluorophenyl)-N-[3-methyl-5-[2,2,3,3,5,5,6,6-octadeuterio-4-(3-deuteriooxetan-3-yl)piperazin-1-yl]phenyl]-1,2,4-triazol-3-amine], under setting [4], the fold induction at 1 µM is 100 to 1000 and the fold induction at 10 µM was no more than 1.

`COCC1CCN(c2cc(Cl)cc(Nc3ncn(-c4ccccc4)n3)c2)CC1` [Compound 246, N-[3-chloro-5-[4-(methoxymethyl)-1-piperidyl]phenyl]-1-phenyl-1,2,4-triazol-3-amine]: the fold induction at 1 µM under setting [2] was in the range of 10 to 100. Under setting [3], the fold induction at 10 µM was 100 to 1000.

For `F[C@@H]1CCN(c2cc(Nc3ncn(-c4ccccc4)n3)cc(C3CC3)n2)C1` [Compound 296, 2-cyclopropyl-6-[(3R)-3-fluoropyrrolidin-1-yl]-N-(1-phenyl-1,2,4-triazol-3-yl)pyridin-4-amine], the fold induction at 1 µM under setting [2] lay in the range of 100 to 1000. The fold induction at 10 µM under setting [3] fell in the range of 10 to 100.

Take `Cc1cc(Nc2ncn(-c3cc(F)cc(F)c3)n2)cc(N2CCC(N3CCCC3=O)CC2)c1` [Compound 161, 1-[1-[3-[[1-(3,5-difluorophenyl)-1,2,4-triazol-3-yl]amino]-5-methyl-phenyl]-4-piperidyl]pyrrolidin-2-one]: under setting [2], the fold induction at 1 µM was in the range of 10 to 100. Further, the fold induction at 10 µM under setting [3] lay in the range of 10 to 100.

For the compound `COCCCN1CCC(Nc2cc(C)cc(Nc3ncn(-c4ccccc4)n3)c2)CC1` [Compound 182, N1-[1-(3-methoxypropyl)-4-piperidyl]-5-methyl-N3-(1-phenyl-1,2,4-triazol-3-yl)benzene-1,3-diamine], the fold induction at 1 µM under setting [2] lay in the range of 1000 to 10000. The fold induction at 10 µM under setting [3] fell in the range of 1 to 10.

Regarding `Cc1cc(Nc2ncn(-c3cccc(C#N)c3)n2)cc(N2CCCC2)c1` [Compound 281, 3-[3-(3-methyl-5-pyrrolidin-1-yl-anilino)-1,2,4-triazol-1-yl]benzonitrile], under setting [2], the fold induction at 1 µM lay within 1 to 10. The fold induction at 10 µM under setting [3] is no more than 1.

`Cc1cc(Nc2ncn(-c3cc(F)cc(F)c3)n2)cc(N2CCC3(CCO3)C2)c1` (stereo not drawn) [Compound 901, 1-(3,5-difluorophenyl)-N-[3-methyl-5-(1-oxa-7-azaspiro[3.4]octan-7-yl)phenyl]-1,2,4-triazol-3-amine]: under setting [4], the fold induction at 1 µM was in the range of 1 to 10 and the fold induction at 10 µM was no more than 1.

For the compound `Cc1cc(NC2(C)COC2)cc(Nc2ncn(-c3cc(F)cc(F)c3)n2)c1F` [Compound 1016, N3-[1-(3,5-difluorophenyl)-1,2,4-triazol-3-yl]-4-fluoro-5-methyl-N1-(3-methyloxetan-3-yl)benzene-1,3-diamine], under setting [4], the fold induction at 1 µM was 10 to 100 and the fold induction at 10 µM was in the range of 1 to 10.

For the compound `Cc1cc(Nc2ncn(-c3cc(F)cc(F)c3)n2)cc(N2CC(N3C[C@@H](C)O[C@H](C)C3)C2)c1` [Compound 857, 1-(3,5-difluorophenyl)-N-[3-[3-[(2R,6R)-2,6-dimethylmorpholin-4-yl]azetidin-1-yl]-5-methyl-phenyl]-1,2,4-triazol-3-amine], under setting [4], the fold induction at 1 µM lay in the range of 10 to 100 and the fold induction at 10 µM was 10 to 100.

In the case of `Cc1cc(Nc2ncn(-c3cc(F)cc(F)c3)n2)cc(N2CCN(C(=O)C3CC3)CC2)c1` [Compound 458], under setting [1], the fold induction at 1 µM is 1000 to 10000 and the fold induction at 10 µM is 100 to 1000.
